Consider one substance from patent US10800790B2, “Sesquiterpenoid STAT3 inhibitors” (University of Hawaii, priority 2013, dated 2020).

Assay [1] has as its system U251MG glioblastoma cells. In words: CyQuant cell viability/proliferation assay, U251MG. The class given is cell-based, human. Particulars: Table 1/FIG. 2 numbering. In outline: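 Cells plated at 2,000 per well for 24 h, then exposed 72 h to compounds at 5 micromolar in DMSO/water. Viability read by CyQuant and normalised to DMSO-treated controls.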
Assay [2] relates to MDA-MB-231 breast cancer cells. In words: CyQuant cell viability/proliferation assay, MDA-MB-231. The class given is cell-based, human. More on the design: key to Activity against 231: +, active; −, no activity; +/−, poorly active. Particulars: Table 1 grade; Table 1/FIG. 2 compound numbering. The protocol:
(§1) The cell viability assay was performed as previously reported (Zhang X, et al. (2010)). Briefly, a 10 millimolar concentration stock solution in dimethylsulfoxide (DMSO) of the tested molecule was first prepared. Next, the stock solution was diluted down to various working solutions in water. Thus, a formulation of the tested compound in a DMSO/water mixture was used to test for cell viability. (A novel small-molecule disrupts STAT3 SH2 domainphosphotyrosine interactions and STAT3-dependent tumor processes, Biochem Pharmacol 79:1398-1409; Zhao W, Jaganathan S, & Turkson J (2010), A cell-permeable STAT3 SH2 domain mimetic inhibits STAT3 activation and induces antitumor cell effects in vitro. J Biol Chem. 285:35855-35865). Cells (U251MG, MDA-MB-231 or NIH3T3) were obtained from ATCC (Manassas, Va.) and were cultured in 96-well plates at 2,000 cells per well for 24 h and were treated with compounds (5 micromolar concentration) for 72 h. Cell viabilty was determined using CyQuant assay, according to the manufacturer's (Invitrogen, CA, USA) instructions. Relative viability of the treated cells was normalized to the DMSO-treated control cells.

For assay [3], the system named is normal NIH3T3 mouse fibroblasts. In words: CyQuant cell viability/proliferation assay, NIH3T3. The class given is cell-based. Set-up: key to Activity against 3T3: +, active; −, no activity; +/−, poorly active. Particulars: Table 1 grade; Table 1/FIG. 2 compound numbering. How it is done: as §1
Assay [4] has as its target T1, STAT3 (NIH3T3/v-Src nuclear extracts) (Mus musculus, UniProt P42227).
T1 construct: nuclear extracts prepared from v-Src-transformed mouse fibroblasts (NIH3T3/v-Src) containing active STAT3; endogenous in cells; host or cells: NIH3T3/v-Src mouse fibroblasts (nuclear extract)
In words: In vitro STAT3 DNA-binding activity/EMSA, nuclear extracts incubated with compound. The class given is biochemical. Particulars: 5 micromolar, 30 min at room temperature. The protocol:
To further determine the effects of the bioactive agents on STAT3 activity, nuclear extracts prepared from v-Src-transformed mouse fibroblasts (NIH3T3/v-Src) containing active STAT3 were directly incubated with 5 micromolar compounds for 30 min at room temperature prior to performing STAT3 DNA-binding activity in vitro with EMSA analysis. […] These studies indicate that agents directly interact with STAT3 and disrupt STAT3:STAT3 dimers, thereby inhibiting its DNA-binding activity.
Data are representative of 2-3 independent determinations.
Nuclear extract preparations and DNA-binding/electrophoretic mobility shift assay (EMSA) were carried out as previously described (Xu, supra). Nuclear extract preparations and DNA-binding activity/electrophoretic mobility shift assay (EMSA) were carried out as previously described. U251 MG and MDA-MB-231 cells culture were pretreated with different concentrations of the compounds for the indicated period and then harvested for nuclear extract preparation and DNA-binding assay with EMSA analysis. The ^32P-labeled oligonucleotide probe used was hSIE (high-affinity sis-inducible element) from the c-fos gene, m67 variant (5′-[…]-3′) that binds STAT3. Except where indicated, nuclear extracts were pre-incubated with compound for 30 min at room temperature prior to incubation with the radiolabeled probe for 30 min at 30° C. before subjecting to EMSA analysis. Where appropriate, bands corresponding to DNA-binding activities were scanned and quantified for each concentration of compound using ImageJ and plotted as percent of control (vehicle) against concentration of compound, from which the IC50 values were derived.

Assay [5] relates to U251MG cells. In words: Colony survival assay, U251MG. The class given is cell-based, human. The protocol: The effect of the isolated or synthesized compounds in a colony survival assay was performed.
This assay was performed as previously reported (Xu, Y., supra). The assay was performed as previously reported. Briefly, cells were seeded as single-cell in 6-well plates (250 cells per well), treated once the next day with compounds for 72 h, and allowed to grow until large colonies were visible. Colonies were stained with crystal violet for 4 h and counted with FluorChem imaging system (Protein Simple, Santa Clara, Calif.).

Assay [6] has as its system U251MG cells. In words: Wound healing assay for migration. Particulars: 0-5 micromolar, 19 h, viability unaffected. The class given is cell-based, human. How it is done: Viable cell numbers at 19 h post-treatment were counted and are represented (right panel). Values are the mean and S.D. of 3-4 independent determinations. Data are representative of 3 independent determinations.
This assay was performed as previously reported. (Xu, Y., supra). Briefly, subconfluent cultures of U251MG cells in 6-well plates were wounded using pipette tips and treated with compound or vehicle (DMSO) and allowed to migrate into the denuded area over a 19 h period. The migration of cells was visualized at a 10× magnification using an Axiovert 200 inverted fluorescence microscope (Zeiss), with pictures taken using a mounted Canon Powershot A640 digital camera.

Assay [7] has as its system GSH levels in U251 MG cells. In words: Glutathione (GSH) levels in U251 MG cells.
Protocol: Reduced glutathione (GSH) and oxidized glutathione disulfide (GSSG) levels were assayed using a commercially available kit (Cayman Chemical, Ann Arbor, Mich.) and following the manufacturer's instructions.
Assay [8] deals with pSTAT1. In words: Immunoblotting of EGF-induced pSTAT1 in NIH3T3/hEGFR. Particulars: 5 micromolar.
Protocol: To determine the specificity of agents, mouse fibroblasts over-expressing the human EGF receptor (NIH3T3/hEGFR) were treated with the compounds and stimulated with EGF.
(A-C) SDS-PAGE and Western blotting analysis of whole-cell lysates of equal total protein prepared from (A) EGF-stimulated NIH3T3/hEGFR cells pre-treated with the 5 micromolar of the designated agents for 24 h and probing for pY705STAT3, STAT3, pY701 STAT1, STAT1, pY694STAT5, STAT5 or GAPDH, or the human glioma, U251MG cells treated with 5 micromolar of the designated inhibitors for (B) 0-32 h and probing for pS-Akt, Akt, pErk1/2, Erk1/2, pJAK2, JAK2, SOCS3, PTP1B, pSTAT3, STAT3, β-actin or GAPDH; or (C) 3 h in the absence or presence of increasing concentration of Na3VO4 and probing for pSTAT3, STAT3 or GAPDH/.

T1 sequence (P42227 whole entry): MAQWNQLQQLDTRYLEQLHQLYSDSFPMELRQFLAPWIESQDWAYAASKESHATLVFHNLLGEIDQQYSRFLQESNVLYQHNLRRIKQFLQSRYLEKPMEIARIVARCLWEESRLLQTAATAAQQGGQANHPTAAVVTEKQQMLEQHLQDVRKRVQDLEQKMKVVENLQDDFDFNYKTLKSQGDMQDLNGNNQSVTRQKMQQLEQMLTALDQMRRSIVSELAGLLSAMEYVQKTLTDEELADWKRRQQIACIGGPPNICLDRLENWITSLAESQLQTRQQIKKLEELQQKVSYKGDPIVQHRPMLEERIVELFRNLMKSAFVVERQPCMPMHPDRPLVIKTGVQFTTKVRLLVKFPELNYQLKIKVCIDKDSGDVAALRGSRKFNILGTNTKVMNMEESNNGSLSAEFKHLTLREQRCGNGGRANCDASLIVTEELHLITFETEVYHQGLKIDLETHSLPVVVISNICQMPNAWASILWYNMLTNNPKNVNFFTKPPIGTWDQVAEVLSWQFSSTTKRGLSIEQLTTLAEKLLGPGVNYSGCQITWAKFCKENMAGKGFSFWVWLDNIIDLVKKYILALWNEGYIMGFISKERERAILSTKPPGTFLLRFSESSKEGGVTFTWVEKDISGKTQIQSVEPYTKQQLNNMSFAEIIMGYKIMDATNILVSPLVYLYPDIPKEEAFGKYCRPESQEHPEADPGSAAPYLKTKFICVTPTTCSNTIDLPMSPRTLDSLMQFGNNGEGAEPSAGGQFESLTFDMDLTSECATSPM

As usually defined, the IC50 is the concentration that gives 50% inhibition. In the case of “(4S,6R,E)-4,7-dihydroxy-6,10-dimethyl-2-oxo-2,4,5,6,7,8,9,10-octahydro-7,10-epoxycyclodeca[b]furan-3-yl)methyl(E)-2-methylbut-2-enoate [Compound 22]”, the IC50 in assay [1] (72-h treatment, read-out: IC50 for the inhibition of U251MG cell viability) worked out at 2600 nM. In assay [1] (U251MG versus other cells incl. NIH3T3), the “Cell-type selectivity of growth inhibition, in words” value is “selective against the growth of human glioma U251MG cells”. The “Activity against 231” value in assay [2] is on record as “+”. Also, the “Activity against 3T3” value in assay [3] is reported as “+/−”. For the same substance, in assay [4], the “Inhibition of STAT3 DNA-binding activity in vitro (EMSA)” value is recorded as “strong inhibition”. For the same substance, in assay [5], the “Preferential effect on colony survival of U251MG and MDA-MB231 over MCF-7” value came out at 2.5 fold. The “Cell migration into the denuded area” value in assay [6] is listed as “suppressed the numbers of U251 cells migrating into the denuded area”. Besides, in assay [7], the “Effect on GSH levels” value is reported as “did not repress GSH levels”. The “Effect on EGF-induced pSTAT1” value in assay [8] is “no effects”.
